According to patent publication EP4579344A1, “THIOALKYLCOUMARIN PHOTOSENSITIZERS FOR PHOTOPOLYMERIZATION” (IGM Group B.V., priority 2023, dated 2025):

experiment: Maximum absorption peak wavelength; format: physicochemical; settings: spectroscopic grade acetonitrile; maximum between 300 nm and 450 nm
Protocol: Maximum absorption peak wavelength: Absorption spectra have been recorded using an AnalytikJena S600 spectrophotometer. On a microbalance, the photosensitizer was weighted with a 10^-6 g precision in a DSC crucible. The crucible and its content was transferred in volumetric flask, then filled with spectroscopic grade acetonitrile. The reference was taken for the empty spectrometer, and two series of spectra were recorded for each solution, in a 1 cm path and in a 1 mm path cells. The spectra of the solvent was taken separately in both cell and then subtracted to solutions spectra. The absorption maxima value is taken where the absorption spectra reaches its maximum in the region between (300 nm and 450 nm)

In order of rising “λ^abs max” value:
1. CCSc1ccc2ccc(=O)oc2c1 [S9]  323 nm
2. Cc1cc(=O)oc2cc(SCCO)ccc12 [S5]  330 nm
3. Cc1c(-c2ccccc2)c(=O)oc2cc(SCCO)ccc12 [S6]  335 nm
4. CCSc1ccc2cc(-c3ccccc3)c(=O)oc2c1 [S1]  345 nm
5. CCSc1ccc(-c2cc3ccc(SCC)cc3oc2=O)cc1 [S3]  347 nm
6. CN(C)CCSc1ccc2cc(-c3ccccc3)c(=O)oc2c1 [S4]  351 nm
7. CCCCC(CC)CSc1ccc2cc(-c3ccccc3)c(=O)oc2c1 (stereo not drawn) [S2]  352 nm
8. CSc1ccc2cc(-c3nc4ccccc4n3C)c(=O)oc2c1 [S7]  362 nm
9. CCN(CC)c1ccc2c(C)cc(=O)oc2c1 [S8, 7-diethylamino-4-methylcoumarin, reference compound]  370 nm

experiment: Fluorescence emission peak wavelength; format: physicochemical; settings: dilute solution (A ~0.1) in acetonitrile; excitation at absorption maximum
Protocol: Fluorescence emission peak wavelength: Fluorescence spectra of the photosensitizers were recorded using a Horiba Jobin Yvon Fluoromax4 spectrofluorometer. The measurement for each photosensitizer was taken in a dilute solution (A ~0.1) of spectroscopic grade acetonitrile, using 1 cm path cell. The excitation wavelength was set at the maximum of absorption of the photosensitizer.

In order of rising “λ^fluo max” value:
1. Cc1cc(=O)oc2cc(SCCO)ccc12 [S5]  396 nm
2. CCSc1ccc2ccc(=O)oc2c1 [S9]  406 nm
3. CCCCC(CC)CSc1ccc2cc(-c3ccccc3)c(=O)oc2c1 (stereo not drawn) [S2]  411 nm
4. Cc1c(-c2ccccc2)c(=O)oc2cc(SCCO)ccc12 [S6]  424 nm
5. CCN(CC)c1ccc2c(C)cc(=O)oc2c1 [S8, 7-diethylamino-4-methylcoumarin, reference compound]  434 nm
6. CN(C)CCSc1ccc2cc(-c3ccccc3)c(=O)oc2c1 [S4]  435 nm
7. CCSc1ccc(-c2cc3ccc(SCC)cc3oc2=O)cc1 [S3]  439 nm
8. CCSc1ccc2cc(-c3ccccc3)c(=O)oc2c1 [S1]  440 nm
9. CSc1ccc2cc(-c3nc4ccccc4n3C)c(=O)oc2c1 [S7]  476 nm
